pIC50: −log10 of the molar value.
What was measured:
MCTs [1] = assay: Dynamic PET/MRI in mice with pre-treatment; type: in vivo, mouse; details: mice, PET
Experimental: (§1) The biodistribution of [^18F]FACH in mice was assessed by small animal PET (Nanoscan, Mediso, Budapest, Hungary) with dynamic 60 min emission recordings, followed by T1 weighted GRE MR (TR = 15.0 ms, TE = 2.4 ms, FA = 25°) imaging for anatomical correlations and attenuation correction. The mice (n = 20) weighing 32.2 ± 2.9 g were anaesthetised with 2% isoflurane in 60% oxygen, and placed on a thermostatically heated animal bed. The animals then received i.v. injections of 0.9% saline (control), reference compound (10 mg/kg), or α-CCA-Na (25 mg/kg) ten min prior or 20 min after (displacement studies) [^18F]FACH administration (2.3–8.6 MBq, 0.5–11.2 nmol/kg). List mode PET data were binned as a series of attenuation-corrected sinogram frames (12 × 10 s, 6 × 30 s, 5 × 60 s and 10 × 300 s) and were reconstructed by Ordered Subset Expectation Maximization (OSEM3D) with four iterations, six subsets and a voxel size of 0.4 mm³ (Nucline v2.01, Mediso).
(§2) The analysis of reconstructed datasets was performed with PMOD software (v4.103, PMOD Technologies LLC, Zurich, Switzerland).
(§3) Data are shown in mean ± standard deviation (SD). Group differences were tested by Student’s t-test, with p < 0.05 designated as significant. Area Under the Curves (AUCs) and corresponding 95% confidence intervals (CI95%s) were calculated with GraphPad Prism (v.8.2) following the assumptions described by Gagnon et al..

MCTs [2] = assay: PET displacement study in mice; type: in vivo, mouse; details: mice
Experimental: as §1, §2

MCTs [3] = type: in vivo, piglet; details: pig, in vivo
Experimental: The piglets (n = 6) were inititally anaesthetised with intramuscular injections of stresnil and ursotamin, and anaesthesia was maintained with intravenous ursotamin and midazolam, as required. The hematocrit was measured in an ear vein blood sample collected just prior to imaging. Either saline (n = 3) or 25 mg/kg α-CCA-Na (n = 3) in saline was administrated ten min before i.v. administration of [^18F]FACH (261–327 MBq, corresponding to 218–852 pmol/kg) via an ear vein. Imaging was performed with a simultaneous hybrid PET/MR system (mMR Biograph; Siemens, Erlangen, Germany) equipped with dedicated phased-array surface. PET data were reconstructed into a 128 × 128 matrix (voxel size: 1.40 × 1.40 × 2.03 mm^3) using the built-in OSEM3D algorithm with eight iterations, 21 subsets, and a 3-mm Gaussian filter. The attenuation and decay corrected dynamic sequence consisted of 32 frames as follows: 1 × 15, 11 × 30, 1 × 45, 5 × 60, 1 × 90, 5 × 120, 1 × 180, 4 × 240, 1 × 300, 2 × 360 s, whereas activity concentrations in VOIs are represented in units of SUV or percentage of injected dose (%/ID). After completing the dynamic PET recording, piglets were euthanized with an i.v. overdose of T61 (Intervet Deutschland GmbH, Unterschleißheim, Germany) and tissues were sampled for radio-metabolism studies in selected animals.
as §2, §3

MCTs [4] = assay: Compartmental kinetic modelling of PET data in piglets; type: in vivo, piglet; details: piglets; for K1 / VT / k2: 1-TCM, control; for BPND: (VT(control)/VT(pre-treated)) − 1; for K1 (representative 1-TCM curve fit) / k2 (representative 1-TCM curve fit): control study, Figure S12
Experimental: Table 4 includes the results of 1-tissue-compartment kinetic modelling (1-TCM) of [^18F]FACH in the kidney cortex and the liver of the control and pre-treated mouse groups (α-CCA-Na and reference compound). […] The BPND was estimated as the ratio of [VT(control)/VT(pre-treatment)] − 1.
Kinetic analysis of reconstructed datasets was performed with PMOD software. First, image derived arterial input functions (IDIFs) were obtained from the left ventricle in mice and from an artery close to the kidney in piglet studies. IDIFs were corrected for partial volume effects, plasma fraction from hematocrit values (individually determined for each piglet directly before PET imaging; for mice set to 0.51 according to CD-1 Mouse Hematology sheet from Charles River Laboratories, 2011) and radio-metabolites (measured for piglets, and set to zero for mice). Tri-exponential metabolite-corrected fitted input functions were used for one and two tissue compartment modelling (1-TCM/2-TCM) of time activity curves (TACs) in tissue volumes of interest (VOIs). For both species the specific blood volume was set to 0.15 mL g^−1 in the kidney cortex and 0.128 mL g^−1 in the liver, according to published values.

MCT1 = test system: MCT1; design: method as in PMID 31017677; details: L-[14C]lactate uptake, rat brain endothelial cells; read-out: IC50 towards MCT1; cited from earlier work

SMILES: CCCN(CCC[18F])c1ccc(/C=C(\C#N)C(=O)O)c(OC)c1 [[^18F]FACH, (E)-2-cyano-3-{4-[(3-[^18F]fluoropropyl)(propyl)amino]-2-methoxyphenyl}acrylic acid]
- peak TAC SUV whole blood (MCTs [1]; left heart ventricle VOI, all three treatment groups): 6.8 ± 1.3
- AUC0–60 min gall bladder (MCTs [1]; vehicle pre-treatment): 481 SUV min
- AUC0–60 min kidney cortex (MCTs [1]; vehicle pre-treatment): 290 SUV min
- AUC0–60 min liver (MCTs [1]; vehicle pre-treatment): 450 SUV min
- AUC0–60 min small intestine (MCTs [1]; vehicle pre-treatment): 99 SUV min
- AUC0–60 min whole blood (MCTs [1]; vehicle pre-treatment): 59 SUV min
- kidney cortex SUV (MCTs [2]; before injection of α-CCA-Na): 3.50 ± 0.42
- blood SUV (MCTs [2]; pre-injection of α-CCA-Na): 0.74 ± 0.23
- peak TAC SUV kidney cortex (MCTs [3]): 15.3 ± 2.5
- peak TAC SUV kidney medulla (MCTs [3]): 66.1 ± 27.7
- peak TAC SUV liver (MCTs [3]): 13.2 ± 2.7
- K1 (MCTs [4]; kidney cortex): 0.69 ± 0.11 mL/g/min
- VT (MCTs [4]; kidney cortex): 11.29 ± 1.47 mL/g
- k2 (MCTs [4]; kidney cortex): 0.06 ± 0.01 min⁻¹
- BPND (MCTs [4]; kidney cortex): 5.2
- K1 (representative 1-TCM curve fit) (MCTs [4]; kidney cortex): 0.82 mL/g/min
- k2 (representative 1-TCM curve fit) (MCTs [4]; kidney cortex): 0.08 min⁻¹
- K1 (MCTs [4]; liver): 0.64 ± 0.10 mL/g/min
- VT (MCTs [4]; liver): 5.12 ± 1.27 mL/g
- k2 (MCTs [4]; liver): 0.13 ± 0.05 min⁻¹
- BPND (MCTs [4]; liver): 0.18
- K1 (representative 1-TCM curve fit) (MCTs [4]; liver): 0.67 mL/g/min
- k2 (representative 1-TCM curve fit) (MCTs [4]; liver): 0.14 min⁻¹
- pIC50 (MCT1): 7.96
